Experimental data published in US4220755A, “Fortimicin B derivatives and process for production thereof” (Abbott Laboratories, priority 1976, dated 1980).
In brackets after ≈: the same amount, converted by molar mass.

Legend:
[1] = Stability in alkaline aqueous conditions; assay type: physicochemical; conditions: for Stability in aqueous solution: pH 10, room temperature, within one hour
Procedure: The stability of 4-N-acylfortimicin B derivatives in aqueous alkaline conditions is poor. […] Therefore, purification of these compounds under basic conditions (for example, column chromatography with Amberlite CG-50, eluting with aqueous ammonia) is not practical.
In contrast with the instability of 4-N-acylfortimicin B derivatives, 4-N-alkylfortimicin B derivatives are so stable that no decomposition occurs even in aqueous barium hydroxide solution at reflux temperature for 18 hours. Therefore, in the case of 4-N-alkylfortimicin B, any substituents can be introduced at 4-N-position of fortimicin B, even though such substituents can not be introduced as the acyl type to such position due to the aforementioned instability.

[2] = tested on: Staphylococcus aureus KY4279 ATCC6538P; experiment: MIC, agar dilution method, pH 8.0; assay type: cell-based; conditions: pH 8.0, Staphylococcus aureus KY4279, read-out: Minimum inhibition concentration (MIC), SA
Procedure: (§1) Measurement was carried out according to the agar dilution method, using a medium of pH 8.0, or the Japanese Antibiotic Medicament Standard, using a medium of pH 7.2 Units are in mcg/ml.
S.A.: Staphylococcus aureus KY4279 ATCC6538P

Bacillus subtilis KY4273 = experiment: MIC, agar dilution method, pH 8.0; assay type: cell-based; conditions: pH 8.0; Bacillus subtilis KY4273; read-out: Minimum inhibition concentration (MIC), BS
Procedure: as §1
B.S.: Bacillus subtilis KY4273

[3] = tested on: Eschericia coli KY4271 ATCC26; experiment: MIC, agar dilution method, pH 8.0; assay type: cell-based; conditions: Escherichia coli, ATCC26; pH 8.0; E. coli KY4271; read-out: Minimum inhibition concentration (MIC), EC
Procedure: as §1
E.C.: Eschericia coli KY4271 ATCC26

[4] = tested on: Proteus vulgaris KY4277 ATCC6897; experiment: MIC, agar dilution method, pH 8.0; assay type: cell-based; conditions: ATCC6897; pH 8.0; Proteus vulgaris KY4277; read-out: Minimum inhibition concentration (MIC), PV
Procedure: as §1

[5] = tested on: Shigella sonnei KY4281 ATCC9290; experiment: MIC, agar dilution method, pH 8.0; assay type: cell-based; conditions: ATCC9290; pH 8.0; Shigella sonnei KY4281; read-out: Minimum inhibition concentration (MIC), SS
Procedure: as §1

[6] = tested on: Salmonella typhosa KY4278 ATCC9992; experiment: MIC, agar dilution method, pH 8.0; assay type: cell-based; conditions: Salmonella enterica, pH 8, read-out: Minimum inhibition concentration (MIC), ST
Procedure: as §1
S.T.: Salmonella typhosa KY4278 ATCC9992

[7] = tested on: Klebsiella pneumoniae KY4275 ATCC10031; experiment: MIC, agar dilution method, pH 8.0; assay type: cell-based; conditions: ATCC10031; pH 8.0; Klebsiella pneumoniae KY4275; read-out: Minimum inhibition concentration (MIC), KP
Procedure: as §1
K.P.: Klebsiella pneumoniae KY4275 ATCC10031.

Row | Structure (SMILES) | Stability in alkali condition (MIC medium) ([1]; pH 8.0) | Stability in aqueous solution [1] | MIC [2] | MIC (Bacillus subtilis KY4273) | MIC [3] | MIC [4] | MIC [5] | MIC [6] | MIC [7]
1 | CO[C@H]1[C@@H](O)[C@H](N)[C@@H](O[C@H]2O[C@H]([C@H](C)N)CC[C@H]2N)[C@H](O)[C@@H]1N(C)C(=O)CCCCN [Compound 11, 4-N-(δ-amino-n-valeryl)fortimicin B] | unstable | almost completely decomposed |  |  |  |  |  |  | 
2 | CO[C@H]1[C@@H](O)[C@H](N)[C@@H](O[C@H]2O[C@H]([C@H](C)N)CC[C@H]2N)[C@H](O)[C@@H]1N(C)C(=O)[C@@H](O)CCN [Compound 14, 4-N-[L-(-)-γ-amino-α-hydroxybutyryl]fortimicin B] |  | almost completely decomposed | 0.63 µg/mL (≈ 1.4 µM) | 5 µg/mL (≈ 11.1 µM) | 0.63 µg/mL (≈ 1.4 µM) | 10 µg/mL (≈ 22.2 µM) | 20 µg/mL (≈ 44.5 µM) | 2.5 µg/mL (≈ 5.56 µM) | 5 µg/mL (≈ 11.1 µM)
